Measurements: ChEMBL document CHEMBL1134505, “Secretase targets for Alzheimer's disease: identification and therapeutic potential” (J Med Chem, 2001)
Numbered stars: 1 amine (or outer) side, 2 acyl side, 3 side chain; on linkers, the order of the positions; unused ones are H or OH. Square brackets hold non-standard residues; d marks the D form. Peptide text beside a SMILES is read from it. * marks the point of attachment. X1 = CC(C)C[C@H](N[*:1])C(O)C[C@@H](C)C(=O)[*:2]; X2 = C[C@H](N[*:1])C(=O)C(F)(F)C(=O)[*:2]; Sta = CC(C)C[C@H](N)[C@@H](O)CC(=O)O; Nva = CCC[C@H](N)C(=O)O; Cbz = O=C(OCc1ccccc1)*; Boc = CC(C)(C)OC(=O)*

Columns and labels:
Beta-secretase 1 = Beta-secretase 1 (Homo sapiens, UniProt P56817); assay: Inhibition of human recombinant beta-secretase
Beta-secretase 1, sequence (P56817 whole entry): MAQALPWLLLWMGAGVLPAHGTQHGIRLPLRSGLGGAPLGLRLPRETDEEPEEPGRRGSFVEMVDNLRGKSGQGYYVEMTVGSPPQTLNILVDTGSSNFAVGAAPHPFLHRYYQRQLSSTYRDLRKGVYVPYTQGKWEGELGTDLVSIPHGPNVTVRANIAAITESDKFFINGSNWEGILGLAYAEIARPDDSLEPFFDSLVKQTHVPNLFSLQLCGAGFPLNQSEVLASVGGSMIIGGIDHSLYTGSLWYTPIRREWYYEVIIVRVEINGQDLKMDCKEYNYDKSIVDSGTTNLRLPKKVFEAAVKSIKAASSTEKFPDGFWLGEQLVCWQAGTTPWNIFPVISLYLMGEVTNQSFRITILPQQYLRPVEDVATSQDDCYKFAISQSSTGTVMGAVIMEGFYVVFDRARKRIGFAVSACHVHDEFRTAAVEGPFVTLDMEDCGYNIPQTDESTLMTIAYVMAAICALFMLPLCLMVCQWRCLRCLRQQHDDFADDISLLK

[1] = target: Gamma-secretase subunit PEN-2 (Homo sapiens, UniProt Q9NZ42); assay: Inhibition of Amyloid-beta production in APP-transfected cells at level of gamma secretase; type: functional, cell-based
Gamma-secretase subunit PEN-2, sequence (Q9NZ42 whole entry): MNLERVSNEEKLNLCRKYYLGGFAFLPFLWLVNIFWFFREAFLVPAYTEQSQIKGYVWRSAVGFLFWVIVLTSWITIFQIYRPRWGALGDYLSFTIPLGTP

Beta-secretase (BACE) [2] = target: T1, Beta-secretase (BACE) (Homo sapiens, UniProt Q9Y5Z0+P56817); assay: Inhibition of beta-secretase activity; type: protein assay
Beta-secretase (BACE) [3] = target: T1, Beta-secretase (BACE); assay: In vitro inhibition of beta-secretase was evaluated; type: protein assay

CC(C)C[C@H](NC(=O)[C@H](CC(N)=O)NC(=O)[C@@H](N)C(C)C)C(O)C[C@@H](C)C(=O)N[C@@H](C)C(=O)N[C@@H](CCC(=O)O)C(=O)N[C@@H](Cc1ccccc1)C(=O)O (stereo partly drawn) (H-VN[X1]AEF-OH)
Ki (Beta-secretase 1): 0.068 µM

CC[C@H](C)[C@H](NC(=O)[C@@H](NC(=O)OC(C)(C)C)C(C)C)C(=O)N[C@@H](C)C(=O)C(F)(F)C(=O)N[C@H](C(=O)N[C@H](C(=O)OC)[C@@H](C)CC)C(C)C (Boc-VI[X2]VI-OMe)
IC50 [1]: 13 µM

CCC[C@@H](C=O)NC(=O)[C@H](CC(C)C)NC(=O)OCc1ccccc1 (Cbz-Leu-[Nva]-aldehyde)
IC50 [1]: 200 µM

CCC[C@@H](C=O)NC(=O)[C@H](CC(C)C)NC(=O)[C@H](CC(C)C)NC(C)=O (Ac-Leu-Leu-[Nva]-aldehyde)
IC50 [1]: 200 µM

CC(C)C[C@@H](C=O)NC(=O)[C@H](CC(C)C)NC(=O)[C@H](CC(C)C)NC(=O)OCc1ccccc1 [MG-132] (Cbz-Leu-Leu-Leu-aldehyde)
IC50 [1]: 200 µM

CC(C)C[C@H](NC(=O)[C@H](CC(N)=O)NC(=O)[C@@H](NC(=O)[C@@H](N)CC(=O)O)C(C)C)C(O)C[C@@H](C)C(=O)N[C@@H](C)C(=O)N[C@@H](CCC(=O)O)C(=O)N[C@@H](Cc1ccccc1)C(=O)O (stereo partly drawn) (H-DVN[X1]AEF-OH)
Ki (Beta-secretase 1): 0.01 µM

CC(C)C[C@H](NC(=O)[C@H](Cc1ccccc1)C[C@@H](O)[C@H](Cc1ccccc1)NC(=O)OC(C)(C)C)C(=O)N[C@@H](Cc1ccccc1)C(N)=O
IC50 (Beta-secretase (BACE) [2]): 0.3 µM

CC[C@H](C)[C@H](NC(=O)[C@H](CCC(=O)O)NC(=O)[C@H](CCC(=O)O)NC(=O)[C@@H](NC(=O)[C@@H](N)CCCCN)[C@@H](C)O)C(=O)N[C@@H](CO)C(=O)N[C@@H](CCC(=O)O)C(=O)N[C@H](C(=O)N[C@@H](CC(N)=O)C(=O)N[C@@H](CC(C)C)[C@@H](O)CC(=O)N[C@H](C(=O)N[C@@H](C)C(=O)N[C@@H](CCC(=O)O)C(=O)N[C@@H](Cc1ccccc1)C(=O)O)C(C)C)C(C)C (H-KTEEISEVN[Sta]VAEF-OH)
IC50 (Beta-secretase (BACE) [3]): 0.03 µM
